Consider 19 molecules from patent US20140243302A1, “BRIDGED BICYCLIC COMPOUNDS FOR THE TREATMENT OF BACTERIAL INFECTIONS” (priority 2011, published 2014).

≈ marks a conversion by molar mass, not a printed value. Structures can show the parent of a compound that is named as a salt.

This experiment relates to Staphylococcus aureus Smith. Briefly: MIC assay, modified agar dilution (CLSI), S. aureus Smith. It counts as cell-based. The note with it: Staphylococcus aureus, agar dilution, 35° C., 16-20 hr; lowest concentration that completely inhibited growth; read-out: S_aureus_Smith_WT_MIC. The essentials: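 Strains were spotted at about 1×10^4 CFU onto compound-containing Mueller Hinton agar (two-fold series, 128-0.001 μg/mL), horse blood 5% added for pneumococcus and enterococcus. MIC read after 16-20 hr at 35 °C, following a modified CLSI agar dilution method.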
On the technique in general: In agar dilution, organisms are placed on agar that contains the substance at set levels.
Turning to `CCOC(=O)COc1ccc2ncc(F)c(CCC34CCC(NCc5ccc6c(n5)NC(=O)CO6)(CC3)CO4)c2n1` [Example 32, Ethyl 2-(7-Fluoro-8-(2-(4-((3-oxo-3,4-dihydro-2H-pyrido[3,2-b][1,4]oxazin-6-yl)methylamino)-2-oxabicyclo[2.2.2]octan-1-yl)ethyl)-1,5-naphthyridin-2-yloxy)acetate], the MIC worked out at 0.25 µg/mL (≈ 0.442 µM).

Turning to `COCCOc1ccc2ncc(F)c(CCC34CCC(NCc5ccc6c(n5)NC(=O)CO6)(CC3)CO4)c2n1` [Example 33, 6-((1-(2-(3-Fluoro-6-(2-methoxyethoxy)-1,5-naphthyridin-4-yl)ethyl)-2-oxabicyclo[2.2.2]octan-4-ylamino)methyl)-2H-pyrido[3,2-b][1,4]oxazin-3(4H)-one], the MIC turned out to be 0.063 µg/mL (≈ 0.117 µM).

With `Cl.O=C1COc2ccc(CNC34CCC(CCc5c(F)cnc6ccc(OCCO)nc56)(CC3)OC4)nc2N1` [Example 34, 6-((1-(2-(3-Fluoro-6-(2-hydroxyethoxy)-1,5-naphthyridin-4-yl)ethyl)-2-oxabicyclo[2.2.2]octan-4-ylamino)methyl)-2H-pyrido[3,2-b][1,4]oxazin-3(4H)-one Hydrochloride], the MIC stood at 0.031 µg/mL.

In the case of `Cl.O=C1COc2ccc(CNC34CCC(CCc5c(F)cnc6ccc(OCCCO)nc56)(CC3)OC4)nc2N1` [Example 35, 6-((1-(2-(3-Fluoro-6-(3-hydroxypropoxy)-1,5-naphthyridin-4-yl)ethyl)-2-oxabicyclo[2.2.2]octan-4-ylamino)methyl)-2H-pyrido[3,2-b][1,4]oxazin-3(4H)-one Hydrochloride], the MIC was 0.016 µg/mL.

`O=C1COc2ccc(CNC34CCC(CCc5c(F)cnc6ccc(OCCCCO)nc56)(CC3)OC4)nc2N1` [Example 36, 6-((1-(2-(3-Fluoro-6-(4-hydroxybutoxy)-1,5-naphthyridin-4-yl)ethyl)-2-oxabicyclo[2.2.2]octan-4-ylamino)methyl)-2H-pyrido[3,2-b][1,4]oxazin-3(4H)-one]: the MIC came out at 0.031 µg/mL (≈ 0.0562 µM).

`O=C1COc2ccc(CNC34CCC(CCc5c(F)cnc6ccc(OCCCCCO)nc56)(CC3)OC4)nc2N1` [Example 37, 6-((1-(2-(3-Fluoro-6-(5-hydroxypentyloxy)-1,5-naphthyridin-4-yl)ethyl)-2-oxabicyclo[2.2.2]octan-4-ylamino)methyl)-2H-pyrido[3,2-b][1,4]oxazin-3(4H)-one]: the MIC turned out to be 0.063 µg/mL (≈ 0.111 µM).

Consider `NCCCOc1ccc2ncc(F)c(CCC34CCC(NCc5ccc6c(n5)NC(=O)CO6)(CC3)CO4)c2n1` [Example 38, 6-((1-(2-(6-(3-Aminopropoxy)-3-fluoro-1,5-naphthyridin-4-yl)ethyl)-2-oxabicyclo[2.2.2]octan-4-ylamino)methyl)-2H-pyrido[3,2-b][1,4]oxazin-3(4H)-one], for which the MIC came out at 0.25 µg/mL (≈ 0.466 µM).

As to `NCCCCOc1ccc2ncc(F)c(CCC34CCC(NCc5ccc6c(n5)NC(=O)CO6)(CC3)CO4)c2n1` [Example 39, 6-((1-(2-(6-(4-Aminobutoxy)-3-fluoro-1,5-naphthyridin-4-yl)ethyl)-2-oxabicyclo[2.2.2]octan-4-ylamino)methyl)-2H-pyrido[3,2-b][1,4]oxazin-3(4H)-one], the MIC was determined as 0.5 µg/mL (≈ 0.908 µM).

For `NCCOc1ccc2ncc(F)c(CCC34CCC(NCc5ccc6c(n5)NC(=O)CO6)(CC3)CO4)c2n1` [Example 40, 6-((1-(2-(6-(2-Aminoethoxy)-3-fluoro-1,5-naphthyridin-4-yl)ethyl)-2-oxabicyclo[2.2.2]octan-4-ylamino)methyl)-2H-pyrido[3,2-b][1,4]oxazin-3(4H)-one], the MIC was determined as 0.25 µg/mL (≈ 0.478 µM).

`NCCCCCOc1ccc2ncc(F)c(CCC34CCC(NCc5ccc6c(n5)NC(=O)CO6)(CC3)CO4)c2n1` [Example 41, 6-((1-(2-(6-(5-Aminopentyloxy)-3-fluoro-1,5-naphthyridin-4-yl)ethyl)-2-oxabicyclo[2.2.2]octan-4-ylamino)methyl)-2H-pyrido[3,2-b][1,4]oxazin-3(4H)-one]: the MIC is 0.5 µg/mL (≈ 0.885 µM).

As to `O=C1COc2ccc(CNC34CCC(CCc5c(F)cnc6ccc(OCC7(CO)CC7)nc56)(CC3)OC4)nc2N1` [Example 42, 6-((1-(2-(3-Fluoro-6-((1-(hydroxymethyl)cyclopropyl)methoxy)-1,5-naphthyridin-4-yl)ethyl)-2-oxabicyclo[2.2.2]octan-4-ylamino)methyl)-2H-pyrido[3,2-b][1,4]oxazin-3(4H)-one], the MIC came to 0.063 µg/mL (≈ 0.112 µM).

Regarding `NCC1(COc2ccc3ncc(F)c(CCC45CCC(NCc6ccc7c(n6)NC(=O)CO7)(CC4)CO5)c3n2)CC1` [Example 43, 6-((1-(2-(6-((1-(Aminomethyl)cyclopropyl)methoxy)-3-fluoro-1,5-naphthyridin-4-yl)ethyl)-2-oxabicyclo[2.2.2]octan-4-ylamino)methyl)-2H-pyrido[3,2-b][1,4]oxazin-3(4H)-one], the MIC is 1 µg/mL (≈ 1.78 µM).

Take `COc1ccc2ncc(C#N)c(CCC34CCC(NCc5ccc6c(n5)NC(=O)CO6)(CC3)CO4)c2n1` [Example 44, 6-Methoxy-4-(2-(4-((3-oxo-3,4-dihydro-2H-pyrido[3,2-b][1,4]oxazin-6-yl)methylamino)-2-oxabicyclo[2.2.2]octan-1-yl)ethyl)-1,5-naphthyridine-3-carbonitrile]: the MIC turned out to be 0.016 µg/mL (≈ 0.032 µM).

As to `COc1ccc2ncc(C#N)c(CCC34CCC(NCc5cc6c(cn5)OCCO6)(CC3)CO4)c2n1` [Example 45, 4-(2-(4-((2,3-Dihydro-[1,4]dioxino[2,3-c]pyridin-7-yl)methylamino)-2-oxabicyclo[2.2.2]octan-1-yl)ethyl)-6-methoxy-1,5-naphthyridine-3-carbonitrile Hydrochloride], the MIC amounted to 0.031 µg/mL.

For the molecule `COc1ccc2ncc(C#N)c(CCC34CCC(NCc5cc6ccccc6n(C)c5=O)(CC3)CO4)c2n1.Cl` [Example 46, 6-Methoxy-4-(2-(4-((1-methyl-2-oxo-1,2-dihydroquinolin-3-yl)methylamino)-2-oxabicyclo[2.2.2]octan-1-yl)ethyl)-1,5-naphthyridine-3-carbonitrile Hydrochloride], the MIC turned out to be 2 µg/mL.

Turning to `CON=C1COc2ccc(CNC34CCC(CCc5c(F)cnc6ccc(OC)nc56)(CC3)OC4)nc2N1` [Example 47, 6-((1-(2-(3-Fluoro-6-methoxy-1,5-naphthyridin-4-yl)ethyl)-2-oxabicyclo[2.2.2]octan-4-ylamino)methyl)-2H-pyrido[3,2-b][1,4]oxazin-3(4H)-one O-Methyl Oxime], the MIC worked out at 2 µg/mL (≈ 3.83 µM).

As to `COc1ccc2ncc(F)c(CCC34CCC(NCc5ccc6c(n5)NC(=NO)CO6)(CC3)CO4)c2n1` [Example 48, 6-((1-(2-(3-Fluoro-6-methoxy-1,5-naphthyridin-4-yl)ethyl)-2-oxabicyclo[2.2.2]octan-4-ylamino)methyl)-2H-pyrido[3,2-b][1,4]oxazin-3(4H)-one Oxime], the MIC was 2 µg/mL (≈ 3.93 µM).

For `COc1ccc2c(n1)c(CCC13CCC(NCc4ccc5c(n4)NC(=O)CO5)(CC1)CO3)cc(=O)n2C` [Example 49, 6-(((1-(2-(6-Methoxy-1-methyl-2-oxo-1,2-dihydro-1,5-naphthyridin-4-yl)ethyl)-2-oxabicyclo[2.2.2]octan-4-yl)amino)methyl)-2H-pyrido[3,2-b][1,4]oxazin-3(4H)-one], the MIC is 1 µg/mL (≈ 1.98 µM).

Regarding `COc1ccc2ncc(OC)c(CCC34CCC(NCc5ccc6c(n5)NC(=O)CO6)(CC3)CO4)c2n1` [Example 50, 6-[({1-[2-(3,6-Dimethoxy-1,5-naphthyridin-4-yl)ethyl]-2-oxabicyclo[2.2.2]oct-4-yl}amino)methyl]-2H-pyrido[3,2-b][1,4]oxazin-3(4H)-one], the MIC worked out at 0.125 µg/mL (≈ 0.247 µM).
